Target: T1, VEGFR‐2 (Homo sapiens, UniProt P35968)
T1 construct: gene KDR
Test: in vitro VEGFR-2 inhibition assay (Human VEGFR ELISA kit)
Type: biochemical

T1 sequence (P35968 20-1356): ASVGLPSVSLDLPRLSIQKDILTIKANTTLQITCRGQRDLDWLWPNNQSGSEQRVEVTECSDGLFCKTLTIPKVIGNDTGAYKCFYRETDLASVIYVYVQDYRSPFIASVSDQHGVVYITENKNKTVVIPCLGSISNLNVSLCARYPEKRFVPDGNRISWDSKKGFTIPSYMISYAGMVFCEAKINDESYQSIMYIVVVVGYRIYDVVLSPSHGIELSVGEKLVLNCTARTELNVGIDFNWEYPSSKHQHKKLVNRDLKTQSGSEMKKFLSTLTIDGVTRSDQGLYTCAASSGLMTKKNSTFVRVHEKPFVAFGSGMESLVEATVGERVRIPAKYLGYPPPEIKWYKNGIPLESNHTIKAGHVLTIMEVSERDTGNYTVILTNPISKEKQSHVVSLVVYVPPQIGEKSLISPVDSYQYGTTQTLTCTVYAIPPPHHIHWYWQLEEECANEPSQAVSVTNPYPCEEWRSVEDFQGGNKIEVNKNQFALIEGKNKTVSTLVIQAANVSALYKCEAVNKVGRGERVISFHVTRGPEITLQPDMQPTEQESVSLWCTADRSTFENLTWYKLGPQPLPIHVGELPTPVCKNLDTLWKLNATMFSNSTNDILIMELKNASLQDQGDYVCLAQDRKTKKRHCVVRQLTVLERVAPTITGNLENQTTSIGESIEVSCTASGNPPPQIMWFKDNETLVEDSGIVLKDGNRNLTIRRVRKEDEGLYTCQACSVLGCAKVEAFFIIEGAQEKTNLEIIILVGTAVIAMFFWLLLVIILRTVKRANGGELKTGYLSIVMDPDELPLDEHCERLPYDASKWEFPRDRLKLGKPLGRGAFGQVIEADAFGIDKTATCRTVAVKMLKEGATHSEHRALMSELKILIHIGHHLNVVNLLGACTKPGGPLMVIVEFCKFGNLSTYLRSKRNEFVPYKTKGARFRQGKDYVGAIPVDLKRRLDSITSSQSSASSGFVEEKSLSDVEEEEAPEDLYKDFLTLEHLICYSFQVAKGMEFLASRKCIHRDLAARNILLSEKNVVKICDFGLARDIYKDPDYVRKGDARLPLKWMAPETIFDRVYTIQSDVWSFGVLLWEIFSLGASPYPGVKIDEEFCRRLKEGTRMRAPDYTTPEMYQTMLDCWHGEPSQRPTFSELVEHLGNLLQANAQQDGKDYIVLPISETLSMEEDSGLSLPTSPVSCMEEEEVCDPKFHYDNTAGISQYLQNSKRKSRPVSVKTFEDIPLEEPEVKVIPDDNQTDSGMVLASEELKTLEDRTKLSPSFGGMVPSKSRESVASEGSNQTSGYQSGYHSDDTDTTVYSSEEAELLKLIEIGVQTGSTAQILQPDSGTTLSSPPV

How did the IC50 turn out when Cn1cnc2c1c(=O)n(CC(=O)Nc1ccc(C(=O)Nc3ccc(F)cc3)cc1)c(=O)n2C [T-1-AFPB, 4‐(2‐(3,7‐Dimethyl‐2,6‐dioxo‐2,3,6,7‐tetrahydro‐1H‐purin‐1‐yl)acetamido)‐N‐(4‐fluorophenyl)benzamide] was run?
Its IC50 is 0.069 ± 0.003 µM.

Reference: paper PMC10558427, “A Theobromine Derivative with Anticancer Properties Targeting VEGFR‐2: Semisynthesis, in silico and in vitro Studies” (ChemistryOpen, 2023)
